Assay results from the NIST ThermoML archive (doi:10.1007/s10765-011-1149-x).

Assay: xn = mol fraction of the nth substance listed
Settings: 101 kPa, Liquid, Vibrating tube method

Cc1cc(C)nc(C)c1 [2,4,6-trimethylpyridine] + OCCO
Settings	mass density [kg/m3]
276.15 K, x1 = 0.0227	1116.64
276.15 K, x1 = 0.0509	1106.81
276.15 K, x1 = 0.1024	1090.72
276.15 K, x1 = 0.1996	1065.35
276.15 K, x1 = 0.2983	1043.61
276.15 K, x1 = 0.4014	1024.29
276.15 K, x1 = 0.4958	1008.47
276.15 K, x1 = 0.5984	991.05
276.15 K, x1 = 0.6974	975.68
276.15 K, x1 = 0.7927	959.81
276.15 K, x1 = 0.8896	944.84
277.15 K, x1 = 0.0227	1115.94
277.15 K, x1 = 0.0509	1106.1
277.15 K, x1 = 0.1996	1064.61
277.15 K, x1 = 0.2983	1042.81
277.15 K, x1 = 0.4014	1023.47
277.15 K, x1 = 0.4958	1007.63
277.15 K, x1 = 0.5984	990.18
277.15 K, x1 = 0.6974	974.81
277.15 K, x1 = 0.7927	958.95
277.15 K, x1 = 0.8896	944
277.16 K, x1 = 0.1024	1090
283.15 K, x1 = 0.0227	1111.72
283.15 K, x1 = 0.0509	1101.82
283.15 K, x1 = 0.1996	1060.1
283.15 K, x1 = 0.2983	1038.02
283.15 K, x1 = 0.4014	1018.5
283.15 K, x1 = 0.5984	985
283.15 K, x1 = 0.7927	953.81
283.15 K, x1 = 0.8896	938.89
283.16 K, x1 = 0.1024	1085.61
283.16 K, x1 = 0.4958	1002.53
283.16 K, x1 = 0.6974	969.63
288.15 K, x1 = 0.0227	1108.21
288.15 K, x1 = 0.0509	1098.26
288.15 K, x1 = 0.1024	1081.94
288.15 K, x1 = 0.1996	1056.23
288.15 K, x1 = 0.2983	1034.02
288.15 K, x1 = 0.4014	1014.34
288.15 K, x1 = 0.4958	998.27
288.15 K, x1 = 0.5984	980.68
288.15 K, x1 = 0.6974	965.31
288.15 K, x1 = 0.7927	949.52
288.15 K, x1 = 0.8896	934.64
293.14 K, x1 = 0.1024	1078.26
293.15 K, x1 = 0.0227	1104.68
293.15 K, x1 = 0.0509	1094.67
293.15 K, x1 = 0.1996	1052.33
293.15 K, x1 = 0.2983	1029.98
293.15 K, x1 = 0.4014	1010.15
293.15 K, x1 = 0.4958	993.97
293.15 K, x1 = 0.5984	976.33
293.15 K, x1 = 0.6974	960.96
293.15 K, x1 = 0.7927	945.2
293.15 K, x1 = 0.8896	930.36
298.14 K, x1 = 0.0227	1101.13
298.14 K, x1 = 0.0509	1091.07
298.14 K, x1 = 0.1024	1074.55
298.14 K, x1 = 0.2983	1025.93
298.14 K, x1 = 0.4958	989.66
298.14 K, x1 = 0.8896	926.07
298.15 K, x1 = 0.1996	1048.43
298.15 K, x1 = 0.4014	1005.94
298.15 K, x1 = 0.5984	971.96
298.15 K, x1 = 0.6974	956.59
298.15 K, x1 = 0.7927	940.86
303.15 K, x1 = 0.0227	1097.58
303.15 K, x1 = 0.0509	1087.45
303.15 K, x1 = 0.1024	1070.84
303.15 K, x1 = 0.1996	1044.52
303.15 K, x1 = 0.2983	1021.84
303.15 K, x1 = 0.4014	1001.71
303.15 K, x1 = 0.4958	985.33
303.15 K, x1 = 0.5984	967.57
303.15 K, x1 = 0.6974	952.2
303.15 K, x1 = 0.7927	936.51
303.15 K, x1 = 0.8896	921.76
308.14 K, x1 = 0.4014	997.46
308.14 K, x1 = 0.5984	963.16
308.15 K, x1 = 0.0227	1094.01
308.15 K, x1 = 0.0509	1083.83
308.15 K, x1 = 0.1024	1067.1
308.15 K, x1 = 0.1996	1040.64
308.15 K, x1 = 0.2983	1017.74
308.15 K, x1 = 0.4958	980.98
308.15 K, x1 = 0.6974	947.78
308.15 K, x1 = 0.7927	932.13
308.15 K, x1 = 0.8896	917.43
313.14 K, x1 = 0.1024	1063.34
313.14 K, x1 = 0.1996	1036.74
313.14 K, x1 = 0.2983	1013.62
313.14 K, x1 = 0.4014	993.19
313.14 K, x1 = 0.4958	976.61
313.14 K, x1 = 0.5984	958.73
313.15 K, x1 = 0.0227	1090.43
313.15 K, x1 = 0.0509	1080.18
313.15 K, x1 = 0.6974	943.35
313.15 K, x1 = 0.7927	927.74
313.15 K, x1 = 0.8896	913.09
